PMC4304211 (Bioorganic & medicinal chemistry, 2013)

Target: STAT3 (Homo sapiens, UniProt P40763)
Experiment: fluorescence polarization competition, single concentration […]
Assay type: binding
Settings: read-out: % inhibition at 500 μM

Sequence of STAT3 (P40763 2-770): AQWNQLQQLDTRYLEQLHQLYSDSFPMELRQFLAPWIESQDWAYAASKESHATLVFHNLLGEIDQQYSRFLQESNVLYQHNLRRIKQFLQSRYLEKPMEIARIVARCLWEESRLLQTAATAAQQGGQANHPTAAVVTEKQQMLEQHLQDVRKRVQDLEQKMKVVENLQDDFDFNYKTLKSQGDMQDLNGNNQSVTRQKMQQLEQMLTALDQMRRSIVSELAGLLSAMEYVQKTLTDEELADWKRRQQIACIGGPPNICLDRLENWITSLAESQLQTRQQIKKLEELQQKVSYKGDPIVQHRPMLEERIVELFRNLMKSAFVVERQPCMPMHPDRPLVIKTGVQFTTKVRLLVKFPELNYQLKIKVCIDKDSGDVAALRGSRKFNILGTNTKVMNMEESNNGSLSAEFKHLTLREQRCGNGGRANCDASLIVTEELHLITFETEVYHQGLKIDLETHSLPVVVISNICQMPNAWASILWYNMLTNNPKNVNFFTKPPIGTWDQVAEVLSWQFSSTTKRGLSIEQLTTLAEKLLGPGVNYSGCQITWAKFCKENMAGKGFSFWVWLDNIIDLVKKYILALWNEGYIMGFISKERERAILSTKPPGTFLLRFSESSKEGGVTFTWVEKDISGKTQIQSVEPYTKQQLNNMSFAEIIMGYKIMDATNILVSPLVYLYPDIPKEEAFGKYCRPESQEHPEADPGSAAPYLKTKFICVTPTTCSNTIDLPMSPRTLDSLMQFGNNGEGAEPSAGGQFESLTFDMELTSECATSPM

Row | Structure (SMILES) | inhibition at 500 µM
1 | NS(=O)(=O)c1cccc2c1C(=O)C=C(SCCO)C2=O [PD11, 6-((2-Hydroxyethyl)thio)-5,8-dioxo-5,8-dihydronaphthalene-1-sulfonamide] | > 50%
2 | O=C1C=C(SCCO)C(=O)c2c(O)cccc21 [PD10, 8-Hydroxy-2-((2-hydroxyethyl)thio)naphthalene-1,4-dione] | > 50%
